# Measured values reported in US20170051306A1, “NOVEL METHOD FOR LABELLING CANCERIZATION-CAUSING CELL IN STEM CELLS, AND THERAPY METHOD” (KAGOSHIMA UNIVERSITY, priority 2014, published 2017).
# Assays:
# KhES1 cells [1] = assay: In vitro cytotoxic effects of suicide genes plus drug, viable cell count; format: cell-based, human; conditions: high-concentration AZT
# Procedure: The total amount of the resulting product was administered. The medium was renewed 24 hours later. […] Then, 10 μL of the cells were collected.
# Jurkat cells = assay: AZT sensitivity of sorted cells constitutively expressing human-tmpk versus non-infected cells (NC); format: cell-based; conditions: AZT at high concentrations
# Procedure: (§1) In addition, regarding human-tmpk, after infection with a lentiviral vector, a similar experiment was conducted using sorted cells permanently-expressing the gene based on specificity to CD19.
# (§2) Starting from the following day, AZT was administered at 0, 0.1, 1, 10, 100, and 1000 μM to each well for 3 days, and the number of viable cells was counted by the method described above.
# MKN45 cells [2] = assay: as above; format: cell-based; conditions: AZT at high concentrations
# Procedure: as §1, §2
# MKN45 cells [3] = assay: In vitro cytotoxic effects of suicide genes plus drug, viable cell count; conditions: high concentration AZT
# Procedure: In order to evaluate cytotoxicity of suicide genes in cells of each type, HSV-tk, human-tmpk, and iCaspase9 were introduced into cells, and cell killing effects were examined and compared with the addition of drugs. […] For human-tmpk and iCasp9, plasmids were introduced into cells. Cells of each type described below were seeded on a 24-well plate at the corresponding number of cells. • KhES1 cells: 4×10^4 cells/well • MKN45 cells: 2×10^4 cells/well (only tmpk iCasp9) • BJ cells: 1×10^4 cells/well
# On the following day, infection with Ad.CAG-HSV-tk at MOI=10 was performed, the medium was renewed 24 hours later, and then 10 μL of GCV (10 μg/mL) was administered for 4 days. For human-tmpk and iCasp9, 0.5 μg of each plasmid was added to 25 μL of OPTI-MEM, and 2 μL of FUGENE HD (QIAGEN) was added, followed by vortexing and stationary placement of 15 minutes. The total amount of the resulting product was administered. The medium was renewed 24 hours later. Then, AZT was administered at 0, 30, 100, and 300 μM to each well of human-tmpk-transfected cells for 3 days. For iCasp3, Dimerizer was administered at 0, 0.03, 0.1, and 0.3 μM to each well for 3 days. After drug administration, cytotoxic effects were determined by counting the number of viable cells. […] Trypan blue (10 μL) was added to each collected cell suspension and the number of viable cells was counted.
# [4] = system: mouse ES/iPS cells or human ES/iPS cells; conditions: cells subcutaneously transplanted; Non-Patent Documents 7 and 8; cited from earlier work
# [5] = system: KhES1 cells after differentiation induction treatment; assay: Safety upon in vitro GCV administration to differentiated cells
# Procedure: Analysis was conducted using the above sorted KhES1 cells to confirm safety upon GCV administration after differentiation induction. For differentiation induction, cells were seeded on a 96-well low adhesive plate containing ES medium (excluding LIF) at 3×10^3 cells per well. Culture was performed for one week so that an embryonic body was formed. Thereafter, subculture on a gelatin-coated dish was continued for 28 days or more so that sufficiently differentiated cells were produced. Cells subjected to differentiation induction were re-seeded on a 96-well plate at 1×10^5 cells per well. Starting from the following day, GCV was administered at 0, 0.01, 0.1, 1, 10, and 100 μg/mL to the groups of survivin-Venus-2A-HSV-tk (A), CAG-Venus-2A-HSV-tk (B), survivin-Venus-2A-puromycin lacking HSV-tk (C), and non-infected cells (NC)(D) for 4 days.
# KhES1 cells [6] = assay: In vitro toxicity of GCV on undifferentiated lentivirus-infected cells
# Procedure: Cells were infected with the vectors. The infected cells (GFP-positive cells) were sorted using FACS ARIA II (BD).
# In the case of KhES 1, KhES 1 cells were cultured overnight in medium containing 10 μM Y27632, treated with CTK, and dispersed into separate cells. The number of cells was counted, a necessary amount of cells were centrifuged (1000 rpm, 5 minutes), and resuspended in 10 μM Y27632-containing PBS. Alexa Fluor 488 anti-Human SSEA4 (BIOLEGEND) serving as an antibody for labeling undifferentiated cells (5 μL) was added to 100 μL of a cell suspension (1×10^6 cells), cells were suspended on ice for every 10 minutes during stationary placement for 30 minutes for labeling of the cells. The cells were washed once with 10 μM Y27632-containing PBS, suspended in 10 μM Y27632-containing ES medium, and then GFP-positive cells labeled with the antibody were evaluated as undifferentiated lentivirus-infected KhES 1 cells using a flow cytometer.
# Cytotoxic effects after GCV administration were analyzed using the above sorted KhES1 cells and D3 cells. KhES1 cells were seeded on a 96-well plate at 1×10^5 cells per well. […] Cytotoxic effects after 4-day administration were determined by WST-8 assay, which is modified MTT assay. […] Absorbance of this formazan at 450 nm was directly measured, thereby determining the number of viable cells (E).
# [7] = tmpk with minimum gene modification; cited from earlier work
molecule,measurement,setting,value
"Cc1cn([C@H]2C[C@H](N=[N+]=[N-])[C@@H](CO)O2)c(=O)[nH]c1=O [AZT, 3′-azido-3′-deoxythymidine]",cell damage in cells not transfected with human-tmpk,KhES1 cells [1],cell damage was observed even in cells not transfected with human-tmpk
same,cell damage in cells not transfected with human-tmpk,Jurkat cells,cell damage was observed even in cells not transfected with human-tmpk
same,cell damage in cells not infected with human-tmpk,MKN45 cells [2],cell damage was induced at high concentrations even in cells not infected with human-tmpk
same,cell damage in cells not transfected with human-tmpk,MKN45 cells [3],Cell damage was observed even in cells not transfected with human-tmpk
"Nc1nc(O)c2ncn(COC(CO)CO)c2n1 [GCV, ganciclovir]",tumor reduction by GCV administration,[4],tumors can be reduced by GCV administration
same,cytotoxicity in non-infected cells (NC) after differentiation,[5]; GCV 0 to 100 μg/mL for 4 days,No cytotoxicity was observed
same,non-specific cell killing effects in differentiated cells,"[5]; GCV at 10 μg/mL or more, compared with undifferentiated cells",Non-specific cell killing effects were not observed
same,specificity of GCV toxicity,"[5]; undifferentiated versus differentiated KhES1 cells, with or without HSV-tk",exhibits toxicity only in undifferentiated cells under the presence of HSV-tk
same,cytotoxic effects in non-infected cells (NC),KhES1 cells [6]; GCV 1 μg/mL,cytotoxic effects were not observed
same,HSV-tk-non-specific cytotoxicity,KhES1 cells [6]; GCV concentration of 10 μg/mL or more,HSV-tk-non-specific cytotoxicity was observed
"tmpk (F105Y): genetically improved human thymidylate kinase used as suicide gene (protein, UniProt P23919 2-212, looked up, variant F105Y) Thymidylate kinase: AARRGALIVLEGVDRAGKSTQSRKLVEALCAAGHRAELLRFPERSTEIGKLLSSYLQKKSDVEDHSVHLLFSANRWEQVPLIKEKLSQGVTLVVDRYAFSGVAYTGAKENFSLDWCKQPDVGLPKPDLVLFLQLQLADAAKRGAFGHERYENGAFQERALRCFHQLMKDTTLNWKMVDASKSIEAVHEDIRVLSEDAIRTATEKPLGELWK",increased action on AZT-MP,[7],200 fold
